From ChEMBL document CHEMBL1201862, “PubChem BioAssay data set” (2004) come the findings set out here.

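Tested at 5 concentrations; 48 h exposure; 96-well plates; endpoints linearly interpolated, else capped at highest concentration. GI50: concentration for 50% inhibition of growth.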 Calls of active or inactive are those of the source. Rule as the data show it: active = GI50 up to about 1.1 µM and inactive = higher.

Common to all, as to experiment: NCI anticancer screen, dose series, 48 h
The subject of experiment [1] is LOX IMVI.
Experiment [2] has as its system PC-3.
In experiment [3] the test system is SK-OV-3.
Experiment [4] has as its system UACC-257.
Experiment [5] relates to A549.
The test system of experiment [6] is MDA-MB-435.
In experiment [7] the test system is UO-31.
Experiment [8] relates to RPMI-8226.
The subject of experiment [9] is MDA-N.
The subject of experiment [10] is EKVX.
The subject of experiment [11] is NCI-H226.
Experiment [12] concerns SF-268.
For experiment [13], the system named is DU-145.
In experiment [14] the test system is 786-0.
In experiment [15] the test system is RXF 393.
For experiment [16], the system named is SF-539.
Experiment [17] has as its system NCI/ADR-RES.
The subject of experiment [18] is NCI-H522.
Experiment [19] concerns HL-60.
In experiment [20] the test system is Malme-3M.

Consider `Clc1ccc(-c2cn3c(nc4ccccc43)c(-c3ccccc3)n2)cc1`, for which the GI50 in [1] was 32 µM (inactive); in experiment [2] it was 18.7 µM (inactive); in [3] it was 11.6 µM (inactive); in [4], 61.2 µM (inactive); in experiment [5], 17.4 µM (inactive); in [6], 25.2 µM (inactive). For the same compound, the GI50 is 24.2 µM (inactive) in experiment [7]; > 100 µM (inactive) in experiment [8]; 27.2 µM (inactive) in experiment [9]; 64.3 µM (inactive) in [10]; 47 µM (inactive) in [11]; 48 µM (inactive) in experiment [12]. The GI50 in [13] was > 71.9 µM (inactive); in experiment [14], 9.35 µM (inactive); in [15] it was 15.6 µM (inactive); in experiment [16] it was 22.3 µM (inactive); in experiment [17] it was 34.9 µM (inactive); in experiment [18], 13.8 µM (inactive). The values for the GI50 in experiment [19] and in experiment [20] were > 100 µM (inactive) and 23.1 µM (inactive), respectively.

In the case of `CCOC(=O)NC(Nc1ccc(F)c(F)c1)(C(=O)OCC)C(F)(F)F` (stereo not given), the GI50 was 0.361 µM (active) in experiment [1]; > 80.5 µM (inactive) in experiment [2]; > 100 µM (inactive) in [3]; > 100 µM (inactive) in [4]; > 100 µM (inactive) in [5]; 5.69 µM (inactive) in experiment [6]. Besides, the GI50 was > 65.6 µM (inactive) in experiment [7]; > 100 µM (inactive) in experiment [8]; > 100 µM (inactive) in experiment [9]; > 100 µM (inactive) in [10]; > 100 µM (inactive) in experiment [11]; > 100 µM (inactive) in experiment [12]. The GI50 was > 62.8 µM (inactive) in experiment [13]; > 100 µM (inactive) in experiment [14]; > 100 µM (inactive) in experiment [15]; > 100 µM (inactive) in experiment [16]; > 68.5 µM (inactive) in [17]; > 100 µM (inactive) in experiment [18]. The GI50 in [19] is 20.4 µM (inactive); in experiment [20], > 100 µM (inactive).

As for `CCCC(=O)Nc1cc(/C=C/C(=O)N2C[C@H]3C[C@@]34C2=CC(=O)c2[nH]cc(C)c24)n(C)c1`, the GI50 in experiment [1] is < 0.0025 µM (active); in [2], < 0.0025 µM (active); in experiment [3] it was 0.00401 µM (active); in [4], < 0.0025 µM (active); in experiment [5], 0.00395 µM (active); in [6] it was < 0.0025 µM (active). Besides, the GI50 is 0.00403 µM (active) in [7]; 0.0161 µM (active) in experiment [8]; < 0.0025 µM (active) in [9]; < 0.0025 µM (active) in experiment [10]; < 0.0025 µM (active) in experiment [11]; < 0.0025 µM (active) in experiment [12]. Moreover, the GI50 in experiment [13] was < 0.0025 µM (active); in experiment [14], < 0.0025 µM (active); in [15] it was < 0.0025 µM (active); in [16], < 0.0025 µM (active); in experiment [17], 0.00982 µM (active); in experiment [18] it was < 0.0025 µM (active). The GI50 in experiment [19] and in [20] was < 0.0025 µM (active) each time.
